In the Kinase Knowledgebase extract (Sharma et al. 2016):

The compounds below were run against ROCK2 (human) (UniProt O75116) (assay: Inhibition of ROCK2 Kinase Activity).
Chain of ROCK2 (human) (O75116 whole entry, looked up): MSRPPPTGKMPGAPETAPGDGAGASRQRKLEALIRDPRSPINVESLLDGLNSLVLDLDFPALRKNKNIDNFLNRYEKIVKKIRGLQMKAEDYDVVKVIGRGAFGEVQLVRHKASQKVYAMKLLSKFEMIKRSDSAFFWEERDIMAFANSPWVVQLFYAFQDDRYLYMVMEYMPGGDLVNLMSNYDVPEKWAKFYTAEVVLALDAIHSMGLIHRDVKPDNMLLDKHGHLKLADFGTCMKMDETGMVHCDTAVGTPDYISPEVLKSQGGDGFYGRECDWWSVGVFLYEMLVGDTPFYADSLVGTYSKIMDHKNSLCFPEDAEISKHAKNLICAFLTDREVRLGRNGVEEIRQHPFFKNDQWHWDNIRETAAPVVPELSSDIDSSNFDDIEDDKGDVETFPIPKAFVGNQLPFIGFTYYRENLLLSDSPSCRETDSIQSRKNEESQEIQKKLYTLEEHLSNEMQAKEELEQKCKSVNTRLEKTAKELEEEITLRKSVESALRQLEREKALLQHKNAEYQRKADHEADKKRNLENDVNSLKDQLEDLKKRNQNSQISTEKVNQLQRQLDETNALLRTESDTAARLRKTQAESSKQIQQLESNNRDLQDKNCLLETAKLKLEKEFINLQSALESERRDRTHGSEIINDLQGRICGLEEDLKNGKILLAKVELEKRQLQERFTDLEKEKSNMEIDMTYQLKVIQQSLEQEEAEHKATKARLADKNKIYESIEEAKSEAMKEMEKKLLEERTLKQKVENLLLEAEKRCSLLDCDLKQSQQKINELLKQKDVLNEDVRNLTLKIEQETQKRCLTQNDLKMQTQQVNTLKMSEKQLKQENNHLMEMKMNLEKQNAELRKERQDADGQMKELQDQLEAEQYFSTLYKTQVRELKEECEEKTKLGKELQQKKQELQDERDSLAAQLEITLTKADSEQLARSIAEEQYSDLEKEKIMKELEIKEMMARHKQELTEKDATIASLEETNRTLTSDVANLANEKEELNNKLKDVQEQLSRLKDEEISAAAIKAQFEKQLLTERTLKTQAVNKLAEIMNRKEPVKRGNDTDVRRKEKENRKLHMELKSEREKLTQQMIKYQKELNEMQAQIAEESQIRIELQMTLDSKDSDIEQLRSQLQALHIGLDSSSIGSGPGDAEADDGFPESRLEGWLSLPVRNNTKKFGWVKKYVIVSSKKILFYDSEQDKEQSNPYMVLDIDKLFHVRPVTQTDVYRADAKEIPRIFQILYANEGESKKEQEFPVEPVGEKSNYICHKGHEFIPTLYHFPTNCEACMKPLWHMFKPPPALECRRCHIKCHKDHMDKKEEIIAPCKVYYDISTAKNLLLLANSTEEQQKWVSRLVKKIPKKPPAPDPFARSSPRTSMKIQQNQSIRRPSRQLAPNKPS

Row | SMILES | IC50
1 | CN(CC(N)c1ccc(C(=O)Nc2ccncc2)cc1)C(=O)C1(c2ccc(Cl)cc2)CCCC1 (configuration not stated) | 0.5 to 5 µM
2 | COc1ccccc1CC(=O)N1CCCC1C(N)c1ccc(C(=O)Nc2ccncc2)cc1 (configuration not stated) | 0.5 to 5 µM
3 | NC(c1ccc(C(=O)Nc2ccncc2)cc1)C1CCCN1C(=O)Cc1cccc(F)c1F (configuration not stated) | 0.5 to 5 µM
4 | CN(CC(N)c1ccc(C(=O)Nc2ccncc2)cc1)C(=O)C1(c2ccc(Cl)cc2Cl)CC1 (configuration not stated) | 0.5 to 5 µM
5 | NC(CNC(=O)C1CCC1)c1ccc(C(=O)Nc2ccncc2)cc1 (configuration not stated) | 0.5 to 5 µM
6 | COc1cc(OC)cc(C(=O)NCC(N)c2ccc(C(=O)Nc3ccncc3)cc2)c1 (configuration not stated) | 0.5 to 5 µM
7 | CN(CC(N)c1ccc(C(=O)Nc2ccncc2)cc1)C(=O)C1(c2ccc(F)cc2F)CC1 (configuration not stated) | 0.5 to 5 µM
8 | NC(c1ccc(C(=O)Nc2ccncc2)cc1)C1CCCN1C(=O)Cc1cccc(Cl)c1 (configuration not stated) | 0.5 to 5 µM
9 | NC(CNC(=O)C1CCCCC1)c1ccc(C(=O)Nc2ccncc2)cc1 (configuration not stated) | 0.5 to 5 µM
10 | NC(CC(=O)Nc1ccc2cc[nH]c2c1)c1ccc(C(=O)Nc2ccncc2)cc1 (configuration not stated) | 0.05 to 0.5 µM
11 | NC(c1ccc(C(=O)Nc2ccncc2)cc1)C1CCCN1C(=O)C1(c2cccs2)CC1 (configuration not stated) | 0.5 to 5 µM
12 | NC(c1ccc(C(=O)Nc2ccncc2)cc1)C1CCCN1C(=O)C1CCCc2sccc21 (configuration not stated) | 0.05 to 0.5 µM
13 | COc1ccc(CNC(=O)CC(N)c2ccc(C(=O)Nc3ccncc3)cc2)c(OC)c1 (configuration not stated) | 0.05 to 0.5 µM
14 | NC(CC(=O)NC1CCCc2ccccc21)c1ccc(C(=O)Nc2ccncc2)cc1 (configuration not stated) | 0.05 to 0.5 µM
15 | NC(c1ccc(C(=O)Nc2ccncc2)cc1)C1CCCN1C(=O)C1CCOc2ccc(Cl)cc21 (configuration not stated) | 0.5 to 5 µM
16 | COc1ccc(CC(=O)N2CCCC2C(N)c2ccc(C(=O)Nc3ccncc3)cc2)cc1 (configuration not stated) | 0.05 to 0.5 µM
17 | CC(C)(C(=O)NCC(N)c1ccc(C(=O)Nc2ccncc2)cc1)c1ccsc1 (configuration not stated) | 0.05 to 0.5 µM
18 | N[C@@H](CC(=O)N[C@@H]1CCCc2ccccc21)c1ccc(C(=O)Nc2ccncc2)cc1 | 0.05 to 0.5 µM
19 | NC(CC(=O)NCCn1cccn1)c1ccc(C(=O)Nc2ccncc2)cc1 (configuration not stated) | 0.05 to 0.5 µM
20 | NC(CC(=O)NC(c1ccccc1)c1ccc(Cl)cc1)c1ccc(C(=O)Nc2ccncc2)cc1 (configuration not stated) | 0.05 to 0.5 µM
21 | CCNS(=O)(=O)c1cccc(C(=O)NCC(N)c2ccc(C(=O)Nc3ccncc3)cc2)c1 (configuration not stated) | 0.5 to 5 µM

Row | SMILES | IC50
22 | NC(CNC(=O)C1CCc2ccccc2C1)c1ccc(C(=O)Nc2ccncc2)cc1 (configuration not stated) | 0.5 to 5 µM
23 | NC(CC(=O)Nc1ccc2[nH]ccc2c1)c1ccc(C(=O)Nc2ccncc2)cc1 (configuration not stated) | 0.05 to 0.5 µM
24 | CN(CC(N)c1ccc(C(=O)Nc2ccncc2)cc1)C(=O)C1CCOc2ccccc21 (configuration not stated) | 0.5 to 5 µM
25 | N[C@H](CC(=O)N[C@H]1COc2ccccc21)c1ccc(C(=O)Nc2ccncc2)cc1 | 0.05 to 0.5 µM
26 | NC(c1ccc(C(=O)Nc2ccncc2)cc1)C1CCCN1C(=O)C1CCSc2ccc(F)cc21 (configuration not stated) | 0.5 to 5 µM
27 | NC(c1ccc(C(=O)Nc2ccncc2)cc1)C1CCCN1C(=O)C1(c2ccc(F)c(F)c2)CC1 (configuration not stated) | 0.5 to 5 µM
28 | NC(CC(=O)NC1Cc2ccccc2C1)c1ccc(C(=O)Nc2ccncc2)cc1 (configuration not stated) | 0.05 to 0.5 µM
29 | CN(CC(N)c1ccc(C(=O)Nc2ccncc2)cc1)C(=O)C1(c2ccc(Cl)cc2)CCC1 (configuration not stated) | 0.5 to 5 µM
30 | CN(CC(N)c1ccc(C(=O)Nc2ccncc2)cc1)C(=O)C1(c2ccccc2)CC1 (configuration not stated) | 0.5 to 5 µM
31 | CC(C)(C(=O)N1CCCC1C(N)c1ccc(C(=O)Nc2ccncc2)cc1)c1ccc(Cl)c(Cl)c1 (configuration not stated) | 0.5 to 5 µM
32 | CC(C)(C(=O)N1CCCC1C(N)c1ccc(C(=O)Nc2ccncc2)cc1)c1cccs1 (configuration not stated) | 0.5 to 5 µM
33 | NC(CNC(=O)c1ccc(Oc2ccccc2)cc1)c1ccc(C(=O)Nc2ccncc2)cc1 (configuration not stated) | 0.5 to 5 µM
34 | NC(CC(=O)NCc1cccc(OC(F)(F)F)c1)c1ccc(C(=O)Nc2ccncc2)cc1 (configuration not stated) | 0.05 to 0.5 µM
35 | CCOC(=O)CCNC(=O)NCC(N)c1ccc(C(=O)Nc2ccncc2)cc1 (configuration not stated) | 0.5 to 5 µM
36 | NC(c1ccc(C(=O)Nc2ccncc2)cc1)C1CCCN1C(=O)Cc1ccc(C(F)(F)F)cc1 (configuration not stated) | 0.5 to 5 µM
37 | NC(c1ccc(C(=O)Nc2ccncc2)cc1)C1CCCN1C(=O)C1Cc2ccccc21 (configuration not stated) | 0.05 to 0.5 µM
38 | CN(CC(N)c1ccc(C(=O)Nc2ccncc2)cc1)C(=O)Cc1cccc(Cl)c1 (configuration not stated) | 0.5 to 5 µM
39 | NC(c1ccc(C(=O)Nc2ccncc2)cc1)C1CCCN1C(=O)Cc1cccc2ccccc12 (configuration not stated) | 0.5 to 5 µM
40 | NC(c1ccc(C(=O)Nc2ccncc2)cc1)C1CCCN1C(=O)Cc1cccc(Br)c1 (configuration not stated) | 0.05 to 0.5 µM
41 | NC(c1ccc(C(=O)Nc2ccncc2)cc1)C1CCCN1C(=O)C1(c2ccc(F)cc2)CCCC1 (configuration not stated) | 0.5 to 5 µM

More lines, now with the values ahead:

Row | IC50 | SMILES
42 | 0.05 to 0.5 µM | NC(CNC(=O)Cc1cccs1)c1ccc(C(=O)Nc2ccncc2)cc1 (configuration not stated)
43 | 0.05 to 0.5 µM | N[C@H](CNC(=O)C1(c2ccc(F)cc2)CCCC1)c1ccc(C(=O)Nc2ccncc2)cc1
44 | 0.05 to 0.5 µM | NC(CNC(=O)c1cccs1)c1ccc(C(=O)Nc2ccncc2)cc1 (configuration not stated)
45 | 0.5 to 5 µM | NC(CNC(=O)c1ccc2ncccc2c1)c1ccc(C(=O)Nc2ccncc2)cc1 (configuration not stated)
46 | 0.05 to 0.5 µM | N[C@H](CC(=O)NCc1ccc(F)cc1)c1ccc(C(=O)Nc2ccncc2)cc1
47 | 0.05 to 0.5 µM | NC(CC(=O)NCc1ccccc1Cl)c1ccc(C(=O)Nc2ccncc2)cc1 (configuration not stated)
48 | 0.05 to 0.5 µM | NC(CC(=O)NCc1ccc(C(F)(F)F)cc1)c1ccc(C(=O)Nc2ccncc2)cc1 (configuration not stated)
49 | 0.05 to 0.5 µM | CC[C@@H](NC(=O)CC(N)c1ccc(C(=O)Nc2ccncc2)cc1)c1ccc(C)cc1 (some centres not stated)
50 | 0.05 to 0.5 µM | COc1ccc(CC(=O)NCC(N)c2ccc(C(=O)Nc3ccncc3)cc2)cc1 (configuration not stated)
51 | 0.05 to 0.5 µM | NC(CNC(=O)Cc1ccc2c(c1)OCO2)c1ccc(C(=O)Nc2ccncc2)cc1 (configuration not stated)
52 | 0.05 to 0.5 µM | NC(CNC(=O)CCc1ccc(F)cc1)c1ccc(C(=O)Nc2ccncc2)cc1 (configuration not stated)
53 | 0.05 to 0.5 µM | NC(CC(=O)NCc1cccs1)c1ccc(C(=O)Nc2ccncc2)cc1 (configuration not stated)
54 | 0.5 to 5 µM | NC(CNC(=O)c1cc2ccccc2[nH]1)c1ccc(C(=O)Nc2ccncc2)cc1 (configuration not stated)
55 | 0.05 to 0.5 µM | NC(CC(=O)NCc1ccccc1Br)c1ccc(C(=O)Nc2ccncc2)cc1 (configuration not stated)
56 | 0.5 to 5 µM | COc1ccc(NC(=S)NCC(N)c2ccc(C(=O)Nc3ccncc3)cc2)cc1 (configuration not stated)
57 | 0.05 to 0.5 µM | NC(CC(=O)NCCc1ccc2c(c1)Cc1ccccc1-2)c1ccc(C(=O)Nc2ccncc2)cc1 (configuration not stated)

Row | IC50 | SMILES
58 | 0.5 to 5 µM | Cc1ccccc1C(=O)NCC(N)c1ccc(C(=O)Nc2ccncc2)cc1 (configuration not stated)
59 | 0.05 to 0.5 µM | COc1ccc(CC(=O)N(C)CC(N)c2ccc(C(=O)Nc3ccncc3)cc2)cc1 (configuration not stated)
60 | 0.5 to 5 µM | N#Cc1ccc(C(=O)NCC(N)c2ccc(C(=O)Nc3ccncc3)cc2)cc1 (configuration not stated)
61 | 0.05 to 0.5 µM | NC(CC(=O)NCc1ccc(F)cc1Cl)c1ccc(C(=O)Nc2ccncc2)cc1 (configuration not stated)
62 | 0.05 to 0.5 µM | CC(C)(NC(=O)CC(N)c1ccc(C(=O)Nc2ccncc2)cc1)c1ccc(Cl)cc1 (configuration not stated)
63 | 0.05 to 0.5 µM | Cc1cccc(CNC(=O)CC(N)c2ccc(C(=O)Nc3ccncc3)cc2)c1 (configuration not stated)
64 | 0.05 to 0.5 µM | NC(CNC(=O)Nc1ccc2ccccc2c1)c1ccc(C(=O)Nc2ccncc2)cc1 (configuration not stated)
65 | 0.05 to 0.5 µM | COc1cccc(CC(=O)NCC(N)c2ccc(C(=O)Nc3ccncc3)cc2)c1 (configuration not stated)
66 | 0.05 to 0.5 µM | NC(CNC(=O)C1(c2cccs2)CC1)c1ccc(C(=O)Nc2ccncc2)cc1 (configuration not stated)
67 | 0.05 to 0.5 µM | NC(CC(=O)NCCc1c[nH]c2ccccc12)c1ccc(C(=O)Nc2ccncc2)cc1 (configuration not stated)
68 | 0.5 to 5 µM | CC(=O)Nc1ccc(C(=O)NCC(N)c2ccc(C(=O)Nc3ccncc3)cc2)cc1 (configuration not stated)
69 | 0.05 to 0.5 µM | N#CCC(=O)NCC(N)c1ccc(C(=O)Nc2ccncc2)cc1 (configuration not stated)
70 | 0.05 to 0.5 µM | NC(CC(=O)NCCc1ccc(Cl)cc1)c1ccc(C(=O)Nc2ccncc2)cc1 (configuration not stated)
71 | 0.05 to 0.5 µM | NC(CC(=O)NCc1ccc(Br)cc1F)c1ccc(C(=O)Nc2ccncc2)cc1 (configuration not stated)
72 | 0.05 to 0.5 µM | NC(CC(=O)NCc1cccc2ccccc12)c1ccc(C(=O)Nc2ccncc2)cc1 (configuration not stated)
